Source: US10106515B2, “1-(cyclopent-2-en-1-yl)-3-(2-hydroxy-3-(arylsulfonyl)phenyl)urea derivatives as CXCR2 inhibitors” (GLAXOSMITHKLINE INTELLECTUAL PROPERTY DEVELOPMENT LIMITED, priority 2014, dated 2018)
Where a name gives a salt, the structure may show the parent alone.

Target: T1, recombinant human CXCR2 (Homo sapiens, UniProt P25025)
T1 construct: TEV protease site; Gal4-VP16 transcription factor
T1 sequence (P25025 1-360): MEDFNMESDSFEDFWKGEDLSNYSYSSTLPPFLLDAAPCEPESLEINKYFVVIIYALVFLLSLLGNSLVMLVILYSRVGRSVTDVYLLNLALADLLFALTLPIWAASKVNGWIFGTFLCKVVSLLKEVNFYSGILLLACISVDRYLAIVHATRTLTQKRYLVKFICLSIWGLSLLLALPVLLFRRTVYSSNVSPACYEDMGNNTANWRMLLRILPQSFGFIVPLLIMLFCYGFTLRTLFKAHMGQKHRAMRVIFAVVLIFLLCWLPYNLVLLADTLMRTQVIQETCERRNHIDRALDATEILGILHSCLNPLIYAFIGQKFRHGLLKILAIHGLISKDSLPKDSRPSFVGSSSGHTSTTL
Test: CXCR2 Tango assay
Type: cell-based
Conditions: mean pIC50 of multiple test results; stimulated with 80 nM hCXCL1; reporter gene blue/green emission ratio; read-out: pIC50 (CXCR2 Tango assay) (converted)
Method in brief: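 A stable cell line carries human CXCR2 fused to a TEV site and Gal4-VP16, with protease-tagged arrestin. Cells (~10,000/well) were stimulated overnight at 37 °C with 80 nM hCXCL1 and a 10-point compound dilution. CCF4-AM beta-lactamase FRET (460/530 nm ratio) was read, normalized to hCXCL1 and DMSO, and mean pIC50 reported.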

| SMILES | IC50 |
| --- | --- |
| CC1=CCCC1NC(=O)Nc1ccc(Cl)c(S(=O)(=O)N2CCCC2)c1O (stereo not shown) [Compound 116, 1-(4-chloro-2-hydroxy-3-(pyrrolidin-1-ylsulfonyl)phenyl)-3-(2-methylcyclopent-2-en-1-yl)urea] | ≤ 10 nM |
| CC1=CCCC1NC(=O)Nc1ccc(Cl)c(S(=O)(=O)N2CCn3ccnc3C2)c1O (stereo not shown) [Compound 117, 1-(4-chloro-3-((5,6-dihydroimidazo [1,2-a]pyrazin-7(8H)-yl)sulfonyl)-2-hydroxyphenyl)-3-(2-methylcyclopent-2-en-1-yl)urea] | ≤ 10 nM |
| CC1=CCCC1NC(=O)Nc1ccc(Cl)c(S(=O)(=O)N2CCOCC2)c1O (stereo not shown) [Compound 118, 1-(4-chloro-2-hydroxy-3-(morpholinosulfonyl)phenyl)-3-(2-methylcyclopent-2-en-1-yl)urea] | ≤ 10 nM |
| CCC1=CCCC1NC(=O)Nc1ccc(Cl)c(S(=O)(=O)C(C)C)c1O (stereo not shown) [Compound 120, 1-(4-chloro-2-hydroxy-3-(isopropylsulfonyl)phenyl)-3-(2-ethylcyclopent-2-en-1-yl)urea] | ≤ 10 nM |
| CCN(CC)S(=O)(=O)c1c(Cl)ccc(NC(=O)NC2CCC=C2C)c1O (stereo not shown) [Compound 121, 6-chloro-N,N-diethyl-2-hydroxy-3-(3-(2-methylcyclopent-2-en-1-yl)ureido)benzene-sulfonamide] | ≤ 10 nM |
| CCO[C@H]1C[C@@H](S(=O)(=O)c2c(Cl)ccc(NC(=O)N[C@@H]3CCC=C3C)c2O)C1 [Compound 124, (R)-1-(4-chloro-3-((cis-3-ethoxycyclobutyl)sulfonyl)-2-hydroxyphenyl)-3-(2-methylcyclopent-2-en-1-yl)urea] | ≤ 1 nM |
| CCO[C@H]1C[C@@H](S(=O)(=O)c2c(Cl)ccc(NC(=O)N[C@@H]3CCC=C3Cl)c2O)C1 [Compound 125, 1-(4-chloro-3-(((1s,3s)-3-ethoxycyclobutyl)sulfonyl)-2-hydroxyphenyl)-3-(2-chlorocyclopent-2-en-1-yl)urea] | ≤ 10 nM |
| CC1=CCC[C@H]1NC(=O)Nc1ccc(Cl)c(S(=O)(=O)C2CC[C@@H](N(C)C)C2)c1O (stereo partly drawn) [Compound 127, cis-1-(4-chloro-3-((3-(dimethylamino)cyclopentyl)sulfonyl)-2-hydroxyphenyl)-3-((R)-2-methylcyclopent-2-en-1-yl)urea] | ≤ 1 nM |

Second part, the molecule after the results:

| IC50 | SMILES |
| --- | --- |
| ≤ 1 nM | CC1=CCCC1NC(=O)Nc1ccc(Cl)c(S(=O)(=O)[C@H]2CC[C@@H](N(C)C)CC2)c1O (stereo partly shown) [Compound 129, 1-(4-chloro-3-(((1s,4s)-4-(dimethylamino)cyclohexyl)sulfonyl)-2-hydroxyphenyl)-3-(2-methylcyclopent-2-en-1-yl)urea, trifluoroacetic acid salt] |
| ≤ 1 nM | CN(C)[C@H]1CC[C@@H](S(=O)(=O)c2c(Cl)ccc(NC(=O)NC3CCC=C3Cl)c2O)CC1 (stereo partly drawn) [Compound 130, 1-(4-chloro-3-((cis-4-(dimethylamino)cyclohexyl)sulfonyl)-2-hydroxyphenyl)-3-(2-chlorocyclopent-2-en-1-yl)urea, trifluoroacetic acid salt] |
| ≤ 10 nM | CC1=CCCC1NC(=O)Nc1ccc(Cl)c(S(=O)(=O)[C@H]2C[C@H](CN(C)C)C2)c1O (stereo partly shown) [Compound 131, 1-(4-chloro-3-(((1r,3r)-3-((dimethylamino)methyl)cyclobutyl)sulfonyl)-2-hydroxyphenyl)-3-(2-methylcyclopent-2-en-1-yl)urea, trifluoroacetic acid salt] |
| ≤ 10 nM | CN(C)C[C@H]1C[C@@H](S(=O)(=O)c2c(Cl)ccc(NC(=O)NC3CCC=C3Cl)c2O)C1 (stereo partly drawn) [Compound 132, 1-(4-chloro-3-((cis-3-((dimethylamino)methyl)cyclobutyl)sulfonyl)-2-hydroxyphenyl)-3-(2-chlorocyclopent-2-en-1-yl)urea, trifluoroacetic acid salt] |
| ≤ 10 nM | CC1=CCCC1NC(=O)Nc1ccc(Cl)c(S(=O)(=O)[C@H]2C[C@H](N(C)C)C2)c1O (stereo partly drawn) [Compound 133, 1-(4-chloro-3-((trans-3-(dimethylamino)cyclobutyl)sulfonyl)-2-hydroxyphenyl)-3-(2-methylcyclopent-2-en-1-yl)urea] |
